Experimental data taken from patent US10799456B2, “Multiple drug lipid nanoparticle composition and related methods for extended drug levels in blood and lymph tissue” (priority 2015, dated 2020).
Where two headings read alike, the source gives them in different places.

What was measured:
[1] = % Drug association to particles by assembly method; assay type: physicochemical
Method in brief: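 Drugs and excipients (e.g., 9:1 DSPC:PEG-DSPE) dissolved in single-phase CHCl3:alcohol:water (65:35:4), dried under reduced pressure, heated above lipid phase transition (e.g., 50° C.). Hydrated with equilibrated buffered saline at that temperature for 3 hr, then size-reduced by shearing or pressurized filtration in liquid phase.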

HIV-2(287) replication = assay: Antiviral activity in HIV-infected CEM-174 cells; assay type: cell-based
Protocol: The antiviral activity of the three-drug combination in soluble or LNP form was evaluated in HIV-infected CEM-174 cells as described previously. […] J Acquir Immune Defic Syndr 2003; 34(4):387-397, incorporated herein by reference in its entirety. […] The dose of drugs added to cells represents the sum of bound and unbound drugs in these anti-HIV LNP formulations.

[2] = Tables 18 and 19; cited from earlier work
[3] = pH dependent drug release from LPV/RTV/TFV lipid nanoparticles; assay type: physicochemical; conditions: 2 hrs
Source text: As described above, we established the pH-dependent association of various drugs to lipids at neutral pH and the consequent release of the drugs when pH is lowered. Also described above, this stable integration and pH-dependent release of drugs from the multiple drug lipid nanoparticles was consistent for both lipophilic and water soluble compounds. To confirm the pH dependent release of the individual drugs from the multiple drug combination lipid nanoparticles, LPV/RTV/PMPA(TFV) lipid nanoparticles, assembled as described above, were subjected to different pH environments, and the free drug component of the supernatant was assayed to determine the amount of release. […] When a lipid nanoparticle is localized in tissues and taken up by HIV-infected cells, the incorporated antiretroviral drugs are then released inside the cell organelles (such as endosome and lysosomes) when the pH is lowered.

[4] = Drug incorporation efficiency into lipid-drug nanoparticles (dialysis); assay type: physicochemical; conditions: LNPs with ATV + RTV + TFV (2:1:3); for Incorporation efficiency (%): laboratory 0.2 mL scale; for Incorporation efficiency (%) / Drug incorporation (% total): preclinical 45 mL scale
Protocol: J Acquir Immune Defic Syndr. […] Journal of pharmaceutical sciences. […] The AAPS journal. […] Residual solvent was removed overnight by vacuum desiccation. The dried lipid-drug film was then rehydrated with 0.9% NaCl containing 20 mM sodium bicarbonate (pH 7.4). The lipid-drug samples were allowed to hydrate at 60° C. for 2 h. Then samples were sonicated (laboratory scale) or homogenized (preclinical scale) to achieve a homogenous suspension.
The incorporation efficiency was calculated as the ratio of the amount of incorporated drug over the total amount of drug loaded multiplied by 100%.

[5] = cited from earlier work
[6] = reported values; cited from earlier work
[7] = Plasma drug exposure of three multi-drug lipid formulations vs free drug in primates; conditions: for Lipid/Free Ratio: total AUC
[8] = Intracellular drug concentration in peripheral blood mononuclear cells (PBMCs); assay type: in vivo, Macaca nemestrina
Protocol: Four macaques were divided into two treatment groups (two animals per group). […] Data were normalized to the anti-HIV LNP dose for comparative analysis.
Plasma was removed, PBMCs were isolated by the density gradient method, and cells were aliquoted into pellets of approximately 2 million PBMCs each. An inguinal lymph node was surgically excised 24 h after drug administration (n=2 per treatment), LNMCs were isolated by passage through a 100-lm nylon cell strainer (Corning, Tewksbury, Mass.), and cells were aliquoted into pellets of approximately 1-2 million LNMCs each. All samples were stored at −80° C. prior to drug analysis.
Plasma concentrations of all three drugs were analyzed simultaneously by liquid chromatography-tandem mass spectrometry using a recently published method. […] PBMC and LNMC pellets were lysed using 200 μl water/methanol (1:1 v/v), sonicated for 10 min, and then extracted and analyzed using the same method as cited above. Intracellular concentrations were converted to ng/ml with the assumption that each cell has a volume of 4×10^−9 ml.

[9] = literature, cited from earlier work
[10] = Human immunodeficiency virus 2, CEM174, LPV:RTV:PMPA fixed 1:1:0.5 (m/m/m), LNP form, read-out: EC50 (nM), Drug-lipid nanoparticles with 3 drug combination
[11] = Human immunodeficiency virus 2, CEM174, LPV:RTV:PMPA fixed 1:1:0.5 (m/m/m), free form, read-out: EC50 (nM), Soluble 3 drug combination

## CC(C)c1nc(CN(C)C(=O)N[C@H](C(=O)N[C@@H](Cc2ccccc2)C[C@H](O)[C@H](Cc2ccccc2)NC(=O)OCc2cncs2)C(C)C)cs1 [Ritonavir (RTV), Ritonavir]
[1]
  % Drug Association to Particles, LNPs from mixture of dual solvent method: 80-100%
  % Drug Association to Particles, LNPs from single, miscible solvent method: 90-100%
HIV-2(287) replication; [10]
  EC50: 3 ± 0.8 nM
HIV-2(287) replication; [11]
  EC50: 98 ± 0.3 nM
HIV-2(287) replication; Human immunodeficiency virus 2, CEM174, read-out: EC50 (nM), Single agent controls, single agent
  EC50: 530 ± 0.2 nM
HIV-2(287) replication; read-out: EC50 (nM), Single agent controls, single agent
  EC50: 1040 nM
[2]
  LogP: 6
[3]; pH 4.0, 37° C.
  % Drug released from anti-HIV nanoparticles: 94.9 ± 0.7%
[3]; pH 5.5, 37° C.
  % Drug released from anti-HIV nanoparticles: 29.0 ± 11.6%
[3]; pH 6.5, 37° C.
  % Drug released from anti-HIV nanoparticles: 3.2 ± 4.9%
[3]; pH 7.4, 37° C.
  % Drug released from anti-HIV nanoparticles: 2 ± 1%

## C[C@H](Cn1cnc2c(N)ncnc21)OCP(=O)(O)O [Tenofovir (TFV), [(2R)-1-(6-aminopurin-9-yl)propan-2-yl]oxymethylphosphonic acid]
[4]
  Incorporation efficiency (%): 2.4 ± 0.1%
  Incorporation efficiency (%) / Drug incorporation (% total): 6.1 ± 0.8%
[4]; listed as TFV
  Incorporation efficiency (%): about 2.4%
[4]; listed as tenofovir
  Incorporation efficiency (%) / Drug incorporation (% total): 6.1±0.8%
[5]
  Water solubility @ 25° C.: 13.3 mg/mL
[6]
  % Drug Association to Particles, Liposomes: ~5%
[7]; ATZ/RTV/TFV combination
  Lipid/Free Ratio: 25.2
[7]; LPV/RTV/TFV combination
  Lipid/Free Ratio: 13.1
[7]; across drug combinations
  fold increase in plasma exposure, lipid-stabilized vs free drug: 10- to 20 fold
[8]; 0 h
  LNP/free ratio, mononuclear cells in blood: 1.0
  Lipid/Free Ratio, PBMCs: 1
[8]; 0.5 h
  LNP/free ratio, mononuclear cells in blood: 0.3
  Lipid/Free Ratio, PBMCs: 0.3
[8]; 1 h
  LNP/free ratio, mononuclear cells in blood: 0.4
  Lipid/Free Ratio, PBMCs: 0.4
[8]; 3 h
  LNP/free ratio, mononuclear cells in blood: 0.5
[8]; 5 h
  LNP/free ratio, mononuclear cells in blood: 4.6
  Lipid/Free Ratio, PBMCs: 4.6
[8]; 8 h
  LNP/free ratio, mononuclear cells in blood: 59.0
[8]; 8 h, listed as PMPA
  LNP/free ratio, mononuclear cells in blood: over 50
[8]; 8 h, listed as TFV
  LNP/free ratio, mononuclear cells in blood: over 50
[8]; 24 h
  LNP/free ratio, mononuclear cells in blood: 70.0
  Lipid/Free Ratio, PBMCs: 70
[8]; 48 h
  LNP/free ratio, mononuclear cells in blood: >227.0
[8]; 168 h
  LNP/free ratio, mononuclear cells in blood: >25.0
  Lipid/Free Ratio, PBMCs: >25.0
[9]; double emulsion nano-precipitate method
  final % drug association: less than 3%
[9]; phosphatidylcholine with stearylamine, particles up to ˜2000 nm
  association of hydrophilic drug: 70%
[1]
  % Drug Association to Particles, LNPs from mixture of dual solvent method: 7-30%
  % Drug Association to Particles, LNPs from single, miscible solvent method: 78-85%
[1]; typical liposomes
  % association of hydrophilic drug in typical liposome: 3-5%
HIV-2(287) replication; [10]
  EC50: 1.5 ± 0.1 nM
HIV-2(287) replication; [11]
  EC50: 49 ± 0.2 nM
HIV-2(287) replication; read-out: EC50 (nM), Single agent controls, single agent, listed as PMPA
  EC50: 1150 ± 0.7 nM
HIV-2(287) replication; read-out: EC50 (nM), Single agent controls, single agent, listed as Tenofovir (PMPA/TFV)
  EC50: 100 to 6000 nM
[3]; pH 4.0, 37° C.
  % Drug released from anti-HIV nanoparticles: 28.7 ± 0.9%
[3]; pH 5.5, 37° C.
  % Drug released from anti-HIV nanoparticles: 11.2 ± 1.5%
[3]; pH 6.5, 37° C.
  % Drug released from anti-HIV nanoparticles: 15.9 ± 5.4%
[3]; pH 7.4, 37° C.
  % Drug released from anti-HIV nanoparticles: 0 ± 2%
